Assay results: US5525595A, “3- or 4-glycosyloxybenzopyran derivative and antiallergic agent containing the derivative as active ingredient” (priority 1993, dated 1996)

Experiments:
[1] = test system: airway resistance in experimental asthma model; assay: Effect on experimental asthma model in guinea pigs; format: in vivo, guinea pigs (Male hadley); settings: Cavia porcellus; 100 mg/kg oral, OVA challenge, guinea pigs; Table 7
Protocol: The asthma is typical allergic disease and we carried out this pharmacological test by well known experimental asthma model in guinea pigs in order to confirm that the compounds of the present invention suppress the asthma. In the following, the method of the pharmacological test will be explained.
Method: Male hadley guinea pigs were immunized by intraperitoneal injection of saline (1 ml) containing 5 mg of ovalbumine (OVA) three times at interval of one week. 2 weeks after final immunization, the animals were challenged by inhalation of 1% OVA-saline solution for 1 minute and then the airway resistance of the animals were measured for 30 minutes with PULMOS-1 (Medical Interface Project Station Inc.) after the inhalation. The compounds of the present invention (test compounds) suspended in 0.5% CMCNa were given orally at a dose of 100 mg/kg. As positive control group, Disodium Cromoglicate (DSCG), well known anti-allergic agent, in saline were injected at a dose of 20 mg/kg into the vein of the animals. As vehicle control group, only 0.5% CMCNa solution were given orally. The inhibition (%) of the airway resistance in vehicle control group was calculated according to equation 5 and the result was shown in Table 7. Each experimental group consisted of 5 guinea pigs. [formula] In equation 5: A: Maximum airway resistance in vehicle control group
B: Maximum airway resistance in test compounds group or positive control group

[2] = test system: homologous passive cutaneous anaphylaxis (PCA) reaction; assay: Effect on homologous passive cutaneous anaphylaxis (PCA) reaction in rats; format: in vivo, rats (Male wistar rats); settings: Rattus norvegicus, 0.5 h; 100 mg/kg oral, 1 hour before antigen, rats; Table 3
Protocol: This experimental animal model is caused by immediate type allergic reaction, namely, antigen-antibody reaction. In the following, the method of this pharmacological test will be explained.
Method: Male wistar rats (9 weeks old) were intradermally administered 0.05 ml of anti-serum against trinitrophenylated ascaris (TNP-As) into two sites on the shaved dorsal skin. 48 hours later, 3-glycosyloxybenzopyran derivatives and 4-glycosyloxybenzopyran derivatives (test compounds) suspended in 0.5% sodium carboxymethylcellulose (CMCNa) were given orally at a dose of 100 mg/kg to the animals. 1 hour after administration of Test compounds, the animals were induced anaphylaxis by injection of saline (1 ml) dissolving 5 mg of Evans Blue and 1 mg of TNP-As into the tail vein of the animals. 30 minutes after induction of anaphylaxis, animals were anesthetized by ether and killed by bleeding, and were flayed dorsal skin. The leakage of dye was assessed by measuring the diameter (mean of shortest and longest diameter) of the blue spot on the inside surface of dorsal skin. As vehicle control group, only 0.5% CMCNa solution was administered orally, and as positive control group, Tranilast suspended in 0.5% CMCNa were administered orally at a dose of 100 mg/kg to the animals with the same method as the test compounds groups. Each experimental group consisted of 5 rats. [formula] In equation 1: A: leakage of dye in vehicle control group
B: leakage of dye in test compound group or in positive control group
The anti-allergic activity of the compounds of the present invention were compared with that of analogous compounds which were published in the Patent (EP-A-0598117) by PCA reaction. This pharmacological test was performed according to the method described in Test Example 1.

[3] = test system: contact dermatitis induced by picryl chloride; assay: Effect on contact dermatitis induced by picryl chloride in mice (delayed type hypersensitization); format: in vivo; settings: Mus musculus; 100 mg/kg oral, ear thickness 24 hours after challenge; Table 6; read-out: Inhibition (%) against the increase of ear thickness
Protocol: The delayed type hypersensitization is inhibited by steroid, but can not be effected by known anti-allergic agents. In the following, the method of the pharmacological test will be explained.
Method: Mice, shaved their abdominal skin on previous day, were immunized by applying 0.1 ml of acetone containing 7 mg of picryl chloride to the skin of the abdomen. 7 days after immunization, the thickness of the ear was measured with a dial thickness gauge, then mice were challenged by painting 5 μl of 1% picryl chloride olive oil solution to each side skin of left ear. 24 hours after challenge, the thickness of the left ear was measured again and the increase (%) of thickness was calculated according to equation 2. The compounds of the present invention (test compounds) suspended in 0.5% CMCNa were forcibly administered orally at a dose of 100 mg/kg at 1 hour before and 16 hours after challenge. As vehicle control group, only 0.5% CMCNa solution were administered orally, and as positive control group, Prednisolone, steroid hormone, and Tranilast were administered orally at the doses of 10 mg/kg and 100 mg/kg, respectively.
Increase (%)=(A-B)/B×100 (Equation 2)
A: thickness of the ear at 24 hours after challenge
B: thickness of the ear before challenge
Inhibition(%)=(C-D)/C×100 (equation 3)
C: The increase (%) in vehicle control group
D: The increase (%) in test compounds group or positive control group

Structure (SMILES)	inhibition in vivo at 100 mg/kg [1] [%]	inhibition in vivo at 100 mg/kg [2] [%]	inhibition in vivo at 100 mg/kg [3] [%]
CC(C)Oc1ccc2c(O)c(O[C@@H]3O[C@H](CO)[C@H](O)[C@H](O)[C@H]3O)c(=O)oc2c1 [compound 36]	66.4	56.7	58.2
CCC=CCCOc1ccc2c(O)c(O[C@@H]3O[C@H](CO)[C@H](O)[C@H](O)[C@H]3O)c(=O)oc2c1 [compound 37]	72.4	59.5	58.3
CC(C)=CCC/C(C)=C/COc1ccc2c(O)c(O[C@@H]3O[C@H](CO)[C@H](O)[C@H](O)[C@H]3O)c(=O)oc2c1 [compound 38]	73.7	59.6	57.6
O=C(Oc1ccc2c(O)c(O[C@@H]3O[C@H](CO)[C@H](O)[C@H](O)[C@H]3O)c(=O)oc2c1)c1ccccc1 [compound 39]	64.1	58.3	54.3
O=c1oc2cc(OCc3ccccc3)ccc2c(O)c1O[C@@H]1O[C@H](CO)[C@H](O)[C@H](O)[C@H]1O [compound 40]	46.2	40.5	41.3
CCCCCCOc1ccc2c(O)c(O[C@@H]3O[C@H](CO)[C@H](O)[C@H](O)[C@H]3O)c(=O)oc2c1 [compound 41]	77.7	60.8	65.7
CC(=O)Oc1ccc2c(O)c(O[C@@H]3O[C@H](CO)[C@H](O)[C@H](O)[C@H]3O)c(=O)oc2c1 [compound 42]	62.6	52.7	52.1
CCCCCCOc1ccc2c(O)c(O[C@@H]3O[C@H](CO)[C@@H](O)[C@H](O)[C@H]3O)c(=O)oc2c1 [compound 43]	76.3	63.2	63.4
CCCCCCOc1ccc2c(O)c(O[C@H]3O[C@H](CO)[C@@H](O)[C@H](O)[C@@H]3O)c(=O)oc2c1 [compound 44]	71.2	53.5	58.2
CC(=O)Oc1ccc2c(O)c(O[C@H]3O[C@H](CO)[C@@H](O)[C@H](O)[C@@H]3O)c(=O)oc2c1 [compound 45]	46.5	46.3	46.3
O=c1oc2cc(O)ccc2c(O[C@@H]2O[C@H](CO)[C@@H](O)[C@H](O)[C@H]2O)c1O [compound 59, 3,7-dihydroxy-4-(β-D-glucopyranosyloxy)-2H-1-benzopyran-2-one]	49.1	46.1	45.6
COc1ccc2c(O[C@@H]3O[C@H](CO)[C@@H](O)[C@H](O)[C@H]3O)c(O)c(=O)oc2c1 [compound 61, 7-methoxy-3-hydroxy-4-(β-D-glucopyranosyloxy)-2H-1-benzopyran-2-one]	53.3	49.2	50.7
CCCCOc1ccc2c(O[C@@H]3O[C@H](CO)[C@@H](O)[C@H](O)[C@H]3O)c(O)c(=O)oc2c1 [compound 63, 7-butoxy-3-hydroxy-4-(β-D-glucopyranosyloxy)-2H-1-benzopyran-2-one]	64.7	57.4	57.1
COc1ccc2c(O[C@@H]3O[C@H](CO)[C@@H](O)[C@H](O)[C@H]3O)c(OC(C)=O)c(=O)oc2c1 [compound 65, 7-methoxy-3-acetoxy-4-(β-D-glucopyranosyloxy)-2H-1-benzopyran-2-one]	46.9	45.6	46.3
CCCCCCCCOc1ccc2c(O[C@@H]3O[C@H](CO)[C@@H](O)[C@H](O)[C@H]3O)c(O)c(=O)oc2c1 [compound 66]	74.1	63.8	62.5
CCCCCCCCCCOc1ccc2c(O[C@@H]3O[C@H](CO)[C@@H](O)[C@H](O)[C@H]3O)c(O)c(=O)oc2c1 [compound 67]	70.6	60.4	63.8
CCCCCCCCCCCCOc1ccc2c(O[C@@H]3O[C@H](CO)[C@@H](O)[C@H](O)[C@H]3O)c(O)c(=O)oc2c1 [compound 68]	65.3	59.9	56.6
CC(C)Oc1ccc2c(O[C@@H]3O[C@H](CO)[C@@H](O)[C@H](O)[C@H]3O)c(O)c(=O)oc2c1 [compound 69]	68.3	57.2	56.4
CCC=CCCOc1ccc2c(O[C@@H]3O[C@H](CO)[C@@H](O)[C@H](O)[C@H]3O)c(O)c(=O)oc2c1 [compound 70]	67.7	58.5	57.6
CC(C)=CCC/C(C)=C/COc1ccc2c(O[C@@H]3O[C@H](CO)[C@@H](O)[C@H](O)[C@H]3O)c(O)c(=O)oc2c1 [compound 71]	65.2	57.4	57.1
O=C(Oc1ccc2c(O[C@@H]3O[C@H](CO)[C@@H](O)[C@H](O)[C@H]3O)c(O)c(=O)oc2c1)c1ccccc1 [compound 72]	49.5	46.9	47.8
COc1ccc2c(O[C@@H]3O[C@H](CO)[C@@H](O)[C@H](O)[C@H]3O)c(OC(=O)c3ccccc3)c(=O)oc2c1 [compound 73]	44.7	45.8	45.8
CCCCOc1ccc2c(O[C@@H]3O[C@H](CO)[C@@H](O)[C@H](O)[C@H]3O)c(OC(C)=O)c(=O)oc2c1 [compound 74]	55.4	46.8	47
CCCCCCCCCCCCOc1ccc2c(O[C@@H]3O[C@H](CO)[C@@H](O)[C@H](O)[C@H]3O)c(OC(C)=O)c(=O)oc2c1 [compound 75]	45.2	43.3	46.2
O=c1oc2cc(OCc3ccccc3)ccc2c(O[C@@H]2O[C@H](CO)[C@@H](O)[C@H](O)[C@H]2O)c1O [compound 76]	47.5	47.7	46.8
O=c1oc2cc(O)ccc2c(O[C@H]2O[C@H](CO)[C@@H](O)[C@H](O)[C@@H]2O)c1O [compound 77]	37.3	42.7	39.6
COc1ccc2c(O[C@H]3O[C@H](CO)[C@@H](O)[C@H](O)[C@@H]3O)c(O)c(=O)oc2c1 [compound 78]	50.8	46.2	43.1
CCCCOc1ccc2c(O[C@H]3O[C@H](CO)[C@@H](O)[C@H](O)[C@@H]3O)c(O)c(=O)oc2c1 [compound 79]	50.3	47.1	46.3
